Measured values as given in US20110104159A1, “COMPOSITIONS AND METHODS FOR TREATING, CONTROLLING, REDUCING, AMELIORATING, OR PREVENTING ALLERGY” (priority 2006, published 2011).
Values joined by “and” are separate entries in the source; they are usually repeats but may differ in a detail not shown here. Equal values may be shown once.

How the values were obtained:
PGE2 = assay: Prostaglandin E2 (PGE2) measurement in aqueous humor; type: in vivo, Rabbit; conditions: for PGE2 in aqueous humor at the second paracentesis, Mean: group mean; for PGE2 in aqueous humor at the second paracentesis: individual eye sample
Procedure: (§1) Each rabbit was placed in a restraint device and tagged with the alphanumeric code. The formulations were instilled (50 μl) into the conjunctival sac of both eyes 180, 120, 90 and 30 min before the first paracentesis; then 15, 30, 90 min after the first paracentesis. To perform the first paracentesis the animals were anaesthetized by intravenous injection of 5 mg/kg Zoletil® (Virbac; 2.5 mg/kg tiletamine HCl and 2.5 mg/kg zolazepam HCl) and one drop of local anesthetic (Novesina®, Novartis) was administered to the eye. Anterior chamber paracentesis was performed with a 26 G needle attached to a tuberculin syringe; the needle was introduced into the anterior chamber through the cornea, taking care not to damage the tissues. Two hours after the first paracentesis, the animals were sacrificed with 0.4 ml Tanax® (Intervet International B.V.) and the second paracentesis was performed. About 100 μl of aqueous humor were removed at the second paracentesis. Aqueous humor was immediately split in four aliquots and stored at −80° C. until analysis. Then both eyes were enucleated and the iris-ciliary body was carefully excised, placed in polypropylene tubes, and stored at −80° C. until analysis.
For the quantitative determination of PGE2 in the aqueous humor we used the PGE2 Immunoassay kit (R&D Systems; Cat. No. KGE004; Lot. No. 240010). Eleven microliters or 16 μl of aqueous humor were diluted to 110 μl or 160 μl with the calibrator diluent solution provided with the kit. One hundred microliters of samples and of standards were load into a 96-well plate and recorded in a plate layout. Samples were treated following the assay procedure described in the kit. A microplate reader (GDV, Italy; model DV 990 B/V6) set at 450 nm (wavelength correction at 540 nm) was used for making the calibration and analyzing the samples.

MPO = assay: Myeloperoxidase (MPO) activity in iris-ciliary body; type: in vivo, Rabbit; conditions: for Mean MPO Unit/g (MPO activity in iris-ciliary body samples): group mean, after the second paracentesis; for MPO Unit/g (raw data of MPO activity in iris-ciliary body samples): individual eyes (DX/SX) of rabbits, samples collected after the second paracentesis
Procedure: 2.3.2.1 Phosphate Buffer (50 mM; pH=6)
3.9 g of NaH2PO4 2H2O were dissolved in a volumetric flask to 500 ml with water. The pH was adjusted to pH=6 with 3N NaOH.
0.5 g of hexa-decyl-trimethyl-ammonium bromide was dissolved in 100 ml phosphate buffer.
The solution was prepared freshly. Ten microliters of H2O2 (30 wt. %) were diluted to 1 ml with water (solution A). 7.5 mg o-dianisidine 2HCl were dissolved in 45 ml of phosphate buffer and 75 μl of solution A were added.
as §1
The activity of MPO was measured as previously described by Williams et al. The iris-ciliary bodies were carefully dried, weighed and immersed in 1 ml of hexa-decyl-trimethyl-ammonium bromide solution. Then, the samples were sonicated for 10 sec on ice by a ultrasound homogenizer (HD 2070, Bandelin electronic), freeze-thawed three times, sonicated for 10 sec and centrifuged at 14,000 g for 10 min to remove cellular debris. An aliquot of the supernatant (40-200 μl) was diluted to 3 ml with the o-dianisidine 2HCl/H2O2 solution. The change in absorbance at 460 nm was continuously monitored for 5 min by a spectrophotometer (UV/Vis Spectrometer Lambda EZ 201; Perkin Elmer). The slope of the line (Δ/min) was determined for each sample and used to calculate the number of units of MPO in the tissue as follows:
where ε=11.3 mM^−1. Values were expressed as units of MPO/g of tissue.

leukocytes (PMN) = assay: Leukocytes (PMN) measurement in aqueous humor; type: in vivo, Rabbit; conditions: for PMN in aqueous humor at the second paracentesis, Mean: group mean; for PMN in aqueous humor at the second paracentesis: individual eye sample
Procedure: as §1
For the determination of the number of leukocytes we used a haemocytometer (Improved Neubauer Chamber; Brigth-line, Hausser Scientific) and a Polyvar 2 microscope (Reichert-Jung).

[1] = tested on: protein concentration in the aqueous humor; assay: Protein measurement in aqueous humor; type: in vivo, Rabbit; conditions: for Protein in aqueous humor at the second paracentesis, Mean: group mean; for Protein in aqueous humor at the second paracentesis: individual eye sample
Procedure: as §1
For protein concentration determination in the aqueous humor we used the Protein Quantification Kit (Fluka; Cat. No. 77371; Lot. No. 1303129). Five microliters of aqueous humor were diluted to 100 μl with water. Twenty microliters of samples and of standards were load into a 96-well plate and recorded in a plate layout. Samples were treated following the assay procedure described in the kit. A microplate reader (GDV, Italy; model DV 990 B/V6) set at 670 nm was used for making the calibration and analyzing the samples.

[2] = tested on: rabbit paracentesis model; assay: Pupillary diameter measurement, rabbit paracentesis model; type: in vivo; conditions: individual eye; for Pupillary diameter T2: −5 min: 5 min before first paracentesis; for Pupillary diameter T3: +115 min: 5 min before second paracentesis; for Pupillary diameter Δ(T3 − T1): +115 min minus −180 min; for Pupillary diameter T1: −180 min: basal
Procedure: as §1
The pupillary diameter of both eyes was measured with a Castroviejo caliper 180 min and 5 min before the first paracentesis and 5 min before the second paracentesis.

[3] = tested on: rabbit paracentesis model; assay: Clinical evaluation by slit lamp (clinical score), rabbit paracentesis model; type: in vivo; parameters: key to Clinical Score −180 min / Clinical Score −5 min / Clinical Score +115 min: 0: normal; 1: discrete dilatation of iris and conjunctival vessels; 2: moderate dilatation of iris and conjunctival vessels; 3: intense iridal hyperemia with flare in the anterior chamber; 4: intense iridal hyperemia with flare in the anterior chamber and presence of fibrinous exudates; conditions: for Clinical Score −5 min: 5 min before first paracentesis; for Clinical Score −5 min / Clinical Score +115 min / Clinical Score −180 min: individual eye, scale 0-4; for Clinical Score +115 min: 5 min before second paracentesis; for Clinical Score −180 min: basal

SMILES: C[C@@H]1C[C@H]2[C@@H]3CCC4=CC(=O)C=C[C@]4(C)[C@@]3(F)[C@@H](O)C[C@]2(C)[C@@]1(O)C(=O)CO [Dex, Dexamethasone, reference compound]
- PGE2 in aqueous humor at the second paracentesis, Mean (PGE2; 0.1% topical): 2.263 ng/mL
- PGE2 in aqueous humor at the second paracentesis (PGE2; 0.1% topical): 2.51 ng/ml and 2.32 ng/ml (2×) and 2.10 ng/ml and 3.03 ng/ml and 1.30 ng/ml
- Mean MPO Unit/g (MPO activity in iris-ciliary body samples) (MPO; 0.1% treatment): 0.618 Unit/g
- MPO Unit/g (raw data of MPO activity in iris-ciliary body samples) (MPO; 0.1% treatment): 0.71 Unit/g and 0.60 Unit/g and 1.32 Unit/g and 0.48 Unit/g (2×) and 0.39 Unit/g and 0.45 Unit/g and 0.51 Unit/g
- PMN in aqueous humor at the second paracentesis, Mean (leukocytes (PMN); 0.1% topical): 30.000 number/μl
- PMN in aqueous humor at the second paracentesis (leukocytes (PMN); 0.1% topical): 20 number/μl (3×) and 50 number/μl and 40 number/μl and 30 number/μl
- Protein in aqueous humor at the second paracentesis, Mean ([1]; 0.1% topical): 33.457 mg/mL
- Protein in aqueous humor at the second paracentesis ([1]; 0.1% topical): 31.31 mg/mL and 31.81 mg/mL and 35.95 mg/mL and 37.15 mg/mL and 32.12 mg/mL and 32.40 mg/mL
- Pupillary diameter T2: −5 min ([2]; 0.1% topical): 5.5 mm and 6.5 mm (3×) and 6.0 mm (2×) and 7.0 mm and 7.5 mm
- Pupillary diameter T3: +115 min ([2]; 0.1% topical): 5.5 mm (3×) and 6.0 mm (2×) and 4.5 mm and 5.0 mm and 6.5 mm
- Pupillary diameter Δ(T3 − T1) ([2]; 0.1% topical): −0.5 mm (3×) and −1.5 mm (2×) and 0.5 mm and 0.0 mm and −2.0 mm
- Pupillary diameter T1: −180 min ([2]; 0.1% topical): 6.0 mm and 7.0 mm (2×) and 5.5 mm (2×) and 6.5 mm (3×)
- Clinical Score −5 min ([3]; 0.1% topical): 0 (6×) and 1 (2×)
- Clinical Score +115 min ([3]; 0.1% topical): 1 (6×) and 3 (2×)
- Percentage of eyes with clinical score 1 ([3]; 0.1% topical, +115 min, 8 eyes): 75%
- Percentage of eyes with clinical score 3 ([3]; 0.1% topical, +115 min, 8 eyes): 25%
- Clinical Score −180 min ([3]; 0.1% topical): 0
- Percentage of eyes with clinical score 0 ([3]; 0.1% topical, −5 min, 8 eyes): 75%
- Percentage of eyes with clinical score 1 ([3]; 0.1% topical, −5 min, 8 eyes): 25%
- Percentage of eyes with clinical score 0 ([3]; 0.1% topical, −180 min, 8 eyes): 100%

SMILES: CC(C(=O)O)c1ccc(-c2ccccc2)c(F)c1 (centres unmarked) [F, flurbiprofen, reference compound]
- PGE2 in aqueous humor at the second paracentesis, Mean (PGE2; 0.03% topical): 1.189 ng/mL
- PGE2 in aqueous humor at the second paracentesis (PGE2; 0.03% topical): 1.04 ng/ml and 0.75 ng/ml and 0.85 ng/ml and 1.11 ng/ml and 2.11 ng/ml (2×) and 0.93 ng/ml and 0.61 ng/ml
- PGE2 in aqueous humor, statistical comparison with CTR (PGE2; 0.03% topical, p<0.05): statistically significant versus CTR
- MPO activity in iris-ciliary body, statistical comparison with CTR (MPO; 0.03% topical, p<0.01): statistical significance
- Mean MPO Unit/g (MPO activity in iris-ciliary body samples) (MPO; 0.03% treatment): 0.906 Unit/g
- MPO Unit/g (raw data of MPO activity in iris-ciliary body samples) (MPO; 0.03% treatment): 1.10 Unit/g and 1.70 Unit/g and 0.34 Unit/g and 0.75 Unit/g and 0.74 Unit/g and 0.63 Unit/g and 0.73 Unit/g and 1.27 Unit/g
- PMN in aqueous humor at the second paracentesis, Mean (leukocytes (PMN); 0.03% topical): 30.000 number/μl
- PMN in aqueous humor at the second paracentesis (leukocytes (PMN); 0.03% topical): 50 number/μl and 40 number/μl (2×) and 20 number/μl (2×) and 10 number/μl and 30 number/μl
- Protein in aqueous humor at the second paracentesis, Mean ([1]; 0.03% topical): 20.910 mg/mL
- Protein in aqueous humor at the second paracentesis ([1]; 0.03% topical): 20.78 mg/mL and 28.80 mg/mL and 23.41 mg/mL and 20.21 mg/mL and 17.53 mg/mL and 15.12 mg/mL and 20.52 mg/mL
- Protein in aqueous humor, statistical comparison with CTR ([1]; 0.03% topical, p<0.001): statistical significance
- Pupillary diameter T2: −5 min ([2]; 0.03% topical): 6.0 mm (3×) and 6.5 mm (3×) and 7.0 mm and 5.5 mm
- Pupillary diameter T3: +115 min ([2]; 0.03% topical): 4.0 mm and 3.5 mm and 5.5 mm (2×) and 5.0 mm (2×) and 4.5 mm and 6.0 mm
- Pupillary diameter Δ(T3 − T1) ([2]; 0.03% topical): −1.0 mm (3×) and −1.5 mm (3×) and 0.0 mm (2×)
- Pupillary diameter T1: −180 min ([2]; 0.03% topical): 5.0 mm (2×) and 7.0 mm and 6.0 mm (4×) and 5.5 mm
- Clinical Score −5 min ([3]; 0.03% topical): 0
- Clinical Score +115 min ([3]; 0.03% topical): 2
- Percentage of eyes with clinical score 2 ([3]; 0.03% topical, +115 min, 8 eyes): 100%
- Clinical Score −180 min ([3]; 0.03% topical): 0
- Percentage of eyes with clinical score 0 ([3]; 0.03% topical, −5 min, 8 eyes): 100%
- Percentage of eyes with clinical score 0 ([3]; 0.03% topical, −180 min, 8 eyes): 100%
